For 1 compound, inhibition and IC50 results are on record in ChEMBL document CHEMBL1155765, “Haterumaimides F-I, four new cytotoxic diterpene alkaloids from an ascidian Lissoclinum species” (J Nat Prod, 2001).

The nature of data set [1]: Toxicity against Sea urchin fertilized eggs assessed as inhibition of cell division at 5 ppm. The arrangement: species or system Egg. Conditions: echinoidea.
The subject of another data set is P388. The data set can be described thus: Cytotoxicity against mouse P388 cells. Type of data set: functional, cell-based.

Structures are written as SMILES. A value given as a limit tells only on which side of the number the result lay.

By inhibition is commonly meant the percentage by which the read-out fell short of the control. The IC50 is the point on the concentration scale where inhibition reaches its midpoint. A high value points to lower potency.

For the compound `CC1(C)C[C@H](Cl)C[C@]2(C)[C@H]3C[C@@H]([C@H]4CC(=O)NC4=O)O[C@@]3(C)CC(=O)[C@@H]12` [HATERUMAIMIDE I], the inhibition at 5 ppm in data set [1] was found to be 80%. Further, the IC50 in the data set with P388 was more than 10 µg/mL.
